Experimental findings from ChEMBL document CHEMBL3621060, “Synthesis and anticancer activities of novel 8-azapurine carbocyclic nucleoside hydrazones” (Bioorg Med Chem Lett, 2015) are described below.

The nature of experiment [1]: Anticancer activity against human HuH7 cells assessed as inhibition of cell growth at 10 uM incubated for 4 days by CCK8 assay. It is filed as functional. Conditions: Huh-7, 96 h, read-out: GI.
In experiment [2] the test system is A549. The experiment is described as follows: Anticancer activity against human A549 cells assessed as inhibition of cell growth at 10 uM incubated for 4 days by CCK8 assay. It is filed as functional. The conditions noted are these: A549, 96 h, read-out: GI.
Experiment [3] in a line: Anticancer activity against human HuH7 cells assessed as inhibition of cell growth incubated for 4 days by CCK8 assay. The conditions noted are these: Huh-7, 96 h. The experiment is classed as functional, cell-based.
Experiment [4] has as its system P388. Briefly: Cytotoxicity against mouse P388 cells. The conditions noted are these: read-out: ED50 (the source's name). The experiment is classed as functional.

Consider `CCCSc1nc(N/N=C/c2ccc(Cl)cc2)c2nnn([C@@H]3C[C@H](O)[C@@H](O)[C@H]3O)c2n1`, for which the figures for the inhibition of growth at 10 µM in experiment [1] and in experiment [2] were 47.8% and 34.2%, respectively.
The corresponding values for `CCCSc1nc(N/N=C/c2ccc(Cl)cc2Cl)c2nnn([C@@H]3C[C@H](O)[C@@H](O)[C@H]3O)c2n1` are 51.2% and 41.6%.
Take `CCCSc1nc(N/N=C/c2ccc([N+](=O)[O-])cc2)c2nnn([C@@H]3C[C@H](O)[C@@H](O)[C@H]3O)c2n1`: the inhibition of growth at 10 µM worked out at 68% in experiment [1] and 67.6% in experiment [2]. In addition, the IC50 in experiment [3] amounted to 11.7 µM.
`CCCSc1nc(N/N=C/c2ccccc2OC)c2nnn([C@@H]3C[C@H](O)[C@@H](O)[C@H]3O)c2n1`: the inhibition of growth at 10 µM in experiment [1] was 43.8%; in experiment [2] it was 31.6%.
With `CCCSc1nc(N/N=C/c2ccc(O)cc2O)c2nnn([C@@H]3C[C@H](O)[C@@H](O)[C@H]3O)c2n1`, the values for the inhibition of growth at 10 µM in experiment [1] and in experiment [2] were 38.3% and 33%, respectively.
Take `CCCSc1nc(N/N=C/c2ccccc2Cl)c2nnn([C@@H]3C[C@H](O)[C@@H](O)[C@H]3O)c2n1`: the figures for the inhibition of growth at 10 µM in experiment [1] and in experiment [2] were 37.7% and 30.5%, respectively.
Turning to `O=c1[nH]cc(F)c(=O)[nH]1` [FLUOROURACIL], the inhibition of growth at 10 µM in experiment [1] was determined as 78.7%; in experiment [2], 64.5%.
The corresponding values for `CCCSc1nc(N/N=C/c2cccc([N+](=O)[O-])c2)c2nnn([C@@H]3C[C@H](O)[C@@H](O)[C@H]3O)c2n1` are 58.5% and 68%.
The corresponding values for `CCCSc1nc(N/N=C/c2ccccc2O)c2nnn([C@@H]3C[C@H](O)[C@@H](O)[C@H]3O)c2n1` are 34.5% and 24.3%.
Consider `Nc1ncnc2c1nnn2[C@@H]1C[C@H](CO)[C@H](O)[C@H]1O`, for which the EC50 in experiment [4] turned out to be 0.38 µM.
`CCCSc1nc(N/N=C/c2ccc(OC)cc2)c2nnn([C@@H]3C[C@H](O)[C@@H](O)[C@H]3O)c2n1`: the inhibition of growth at 10 µM worked out at 57.3% in experiment [1] and 69.2% in experiment [2].
`CCCSc1nc(N/N=C/c2ccc(F)c(F)c2)c2nnn([C@@H]3C[C@H](O)[C@@H](O)[C@H]3O)c2n1`: the inhibition of growth at 10 µM is 31.5% in experiment [1] and 26.9% in experiment [2].
For the compound `CCCSc1nc(N/N=C/c2ccc(OC)c(OC)c2)c2nnn([C@@H]3C[C@H](O)[C@@H](O)[C@H]3O)c2n1`, the figures for the inhibition of growth at 10 µM in experiment [1] and in experiment [2] were 26.9% and 28.9%, respectively.
The corresponding values for `CCCSc1nc(N/N=C/c2ccccn2)c2nnn([C@@H]3C[C@H](O)[C@@H](O)[C@H]3O)c2n1` are 52.5% and 38.6%.
The corresponding values for `CCCSc1nc(N/N=C/c2cccc(O)c2)c2nnn([C@@H]3C[C@H](O)[C@@H](O)[C@H]3O)c2n1` are 36.5% and 21.4%.
As for `CCCSc1nc(N/N=C/c2cccs2)c2nnn([C@@H]3C[C@H](O)[C@@H](O)[C@H]3O)c2n1`, the results for the inhibition of growth at 10 µM in experiment [1] and in experiment [2] were 50% and 38.8%, respectively.
In the case of `CCCSc1nc(N/N=C/c2ccccc2)c2nnn([C@@H]3C[C@H](O)[C@@H](O)[C@H]3O)c2n1`, the values for the inhibition of growth at 10 µM in experiment [1] and in experiment [2] were 20.1% and 22.9%, respectively.
For the compound `CCCSc1nc(N/N=C/c2ccc(O)cc2)c2nnn([C@@H]3C[C@H](O)[C@@H](O)[C@H]3O)c2n1`, the inhibition of growth at 10 µM in experiment [1] was determined as 43.8%; in experiment [2], 32.3%.
